We go through three molecules from US10870638B2, “Pyridazinone compound or its salt, and herbicide containing it” (ISHIHARA SANGYO KAISHA, LTD., priority 2016, dated 2020).

Common to all, as to format: in vivo
Assay [1] relates to green foxtail (Setaria viridis L.). Put plainly: Test Example 2: soil application on the day after sowing, growth inhibition rate on 14th day. To be noted: active ingredient amount 31 g/ha, 14th day after application. The essentials: (§1)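 Growth inhibition (%) judged by eye at day 14, scale 0 = as untreated to 100 = complete kill. Compounds formulated as wettable powders or emulsifiable concentrates, diluted in 1,000 L water per ha and sprayed onto pot soil one day post-sowing at set active-ingredient rates.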

The subject of assay [2] is barnyardgrass (Echinochloa crus-qalli L.). The assay is described as above. To be noted: active ingredient amount 31 g/ha, 14th day after application. The essentials:
as §1

The test system of assay [3] is wheat (Triticum aestivum L.). The assay is described as above. The conditions noted are these: active ingredient amount 31 g/ha, 14th day after application. In outline: as §1
Assay [4] deals with velvetleaf (Abutilon theophrasti MEDIC.). The assay is described as above. To be noted: active ingredient amount 31 g/ha, 14th day after application. The essentials:
as §1

The test system of assay [5] is crabgrass (Digitaris sanquinalis L.). Described as above. To be noted: active ingredient amount 31 g/ha, 14th day after application. The essentials:
as §1

Assay [6] relates to redroot pigweed (Amaranthus retroflexus L.). Described as above. To be noted: active ingredient amount 31 g/ha, 14th day after application. The essentials:
as §1

Assay [7] deals with prickly sida (Sida spinosa L.). The description is as above. The conditions noted are these: active ingredient amount 31 g/ha, 14th day after application. In outline:
as §1

The test system of assay [8] is soybean (Glycine max Merr.). The assay is described as above. To be noted: active ingredient amount 31 g/ha, 14th day after application. In outline:
as §1

Assay [9] has as its system rice (Oryza sativa L.). Described as above. The conditions noted are these: active ingredient amount 31 g/ha, 14th day after application. In outline:
as §1

The test system of assay [10] is corn (Zea mays L.). The assay is described as above. The conditions noted are these: active ingredient amount 31 g/ha, 14th day after application. In outline: as §1
The subject of assay [11] is green foxtail (Setaria viridis L.). Put plainly: Test Example 1: foliar treatment, growth inhibition rate on 14th day. To be noted: active ingredient amount 31 g/ha, 14th day after application, visual, 0 = non-treated, 100 = complete kill. The essentials: (§2)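 Inhibition was rated visually 14 days after treatment on a 0–100% scale, where 100 is complete kill. Compounds, formulated as wettable powders or emulsifiable concentrates at set active-ingredient amounts, were diluted to 1,000 L/ha with 0.1 vol% spreader. The dilutions were sprayed post-emergence onto soybean (primary leaf), rice (0.2–2.7 leaf), wild oat (0.4–1.2) and green foxtail (0.5–3.2).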

In assay [12] the test system is barnyardgrass (Echinochloa crus-qalli L.). The description is as above. To be noted: active ingredient amount 31 g/ha, 14th day after application, visual, 0 = non-treated, 100 = complete kill. The essentials:
(§3)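 Visual 0–100% inhibition scoring (100 = complete kill) at 14 days after foliar treatment of soil-grown seedlings at species-specific leaf stages, with the compound sprayed as a wettable powder or emulsifiable concentrate dilution.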

The subject of assay [13] is wheat (Triticum aestivum L.). The assay is described as above. The conditions noted are these: active ingredient amount 31 g/ha, 14th day after application, visual, 0 = non-treated, 100 = complete kill. The essentials: as §3
In assay [14] the test system is wild oat (Avena fatua L.). The assay is described as above. The conditions noted are these: active ingredient amount 31 g/ha, 14th day after application, visual, 0 = non-treated, 100 = complete kill. In outline: as §2
The subject of assay [15] is italian ryegrass (Lolium multiflorum Lam.). The description is as above. To be noted: active ingredient amount 31 g/ha, 14th day after application, visual, 0 = non-treated, 100 = complete kill. In outline: as §3
Assay [16] concerns redroot pigweed (Amaranthus retroflexus L.). The description is as above. The conditions noted are these: active ingredient amount 31 g/ha, 14th day after application, visual, 0 = non-treated, 100 = complete kill. In outline: as §3
Assay [17] concerns crabgrass (Digitaria sanquinalis L.). Described as above. To be noted: active ingredient amount 31 g/ha, 14th day after application, visual, 0 = non-treated, 100 = complete kill. In outline: as §3
Assay [18] relates to soybean (Glycine max Merr.). The assay is described as above. To be noted: active ingredient amount 31 g/ha, 14th day after application, visual, 0 = non-treated, 100 = complete kill. The essentials:
as §2

Assay [19] relates to rice (Oryza sativa L.). The assay is described as above. The conditions noted are these: active ingredient amount 31 g/ha, 14th day after application, visual, 0 = non-treated, 100 = complete kill. The essentials:
as §2

For assay [20], the system named is corn (Zea mays L.). The assay is described as above. The conditions noted are these: active ingredient amount 31 g/ha, 14th day after application, visual, 0 = non-treated, 100 = complete kill. In outline:
as §3

Turning to `COCC(=O)Oc1c(C)nn(C)c(=O)c1-c1cc(Oc2cnc3cc(Cl)ccc3n2)ccc1C` [Compound 3-45], the “Growth inhibition rate (%) Green foxtail” value was 85% in assay [1] and 99% in assay [11]. Moreover, the entries for the “Growth inhibition rate (%) Barnyardgrass” value in assay [2] and in [12] were 95% and 100%, respectively. Moreover, the “Growth inhibition rate (%) Wheat” value was determined as 0% in [3] and 98% in assay [13]. The “Growth inhibition rate (%) Velvetleaf” value in assay [4] was determined as 0%. In addition, the “Growth inhibition rate (%) Crabgrass” value in assay [5] amounted to 20%; in [17], 99%. Further, the “Growth inhibition rate (%) Redroot pigweed” value in [6] and in assay [16] was 0% each time. In [7], the “Growth inhibition rate (%) Prickly sida” value is given as 0%. For the same molecule, the results for the “Growth inhibition rate (%) Soybean” value in assay [8] and in assay [18] were 0% and 25%, respectively. In addition, the “Growth inhibition rate (%) Rice” value in the assay with rice (Oryza sativa L.) [9] worked out at 25%; in the assay with rice (Oryza sativa L.) [19] it was 98%. Moreover, the “Growth inhibition rate (%) Corn” value in the assay with corn (Zea mays L.) [10] turned out to be 0%; in the assay on corn (Zea mays L.) [20], 45%. Further, the “Growth inhibition rate (%) Wild oat” value in assay [14] is recorded as 100%. The “Growth inhibition rate (%) Italian ryegrass” value in assay [15] is 100%.
As to `Cc1ccc(Oc2cnc3cc(Cl)ccc3n2)cc1-c1c(OC(=O)COc2ccccc2)c(C)nn(C)c1=O` [Compound 3-48], the “Growth inhibition rate (%) Green foxtail” value in assay [1] and in assay [11] was 100% throughout. Also, the “Growth inhibition rate (%) Barnyardgrass” value is on record as 98% in assay [2] and 100% in assay [12]. Also, the “Growth inhibition rate (%) Wheat” value came to 20% in assay [3] and 90% in assay [13]. Also, the “Growth inhibition rate (%) Velvetleaf” value in [4] is listed as 0%. Also, the figures for the “Growth inhibition rate (%) Crabgrass” value in assay [5] and in [17] were 60% and 98%, respectively. Moreover, the “Growth inhibition rate (%) Redroot pigweed” value in assay [6] and in assay [16] was 0% in each case. For the same molecule, in assay [7], the “Growth inhibition rate (%) Prickly sida” value was 0%. Also, the “Growth inhibition rate (%) Soybean” value in assay [8] turned out to be 0%; in [18], 10%. For the same molecule, the “Growth inhibition rate (%) Rice” value in the assay with rice (Oryza sativa L.) [9] and in the assay on rice (Oryza sativa L.) [19] was 0% throughout. The “Growth inhibition rate (%) Corn” value in the assay with corn (Zea mays L.) [10] was found to be 0%; with corn (Zea mays L.) [20], 25%. The “Growth inhibition rate (%) Wild oat” value in assay [14] is reported as 75%. Besides, the “Growth inhibition rate (%) Italian ryegrass” value in assay [15] was 95%.
`C=CC(=O)Oc1c(C)nn(C)c(=O)c1-c1cc(Oc2cnc3cc(Cl)ccc3n2)ccc1C` [Compound 3-49]: the “Growth inhibition rate (%) Green foxtail” value in assay [1] is on record as 85%; in [11], 100%. In addition, the “Growth inhibition rate (%) Barnyardgrass” value in [2] came out at 95%; in assay [12], 99%. Besides, the “Growth inhibition rate (%) Wheat” value in [3] came out at 10%; in assay [13] it was 99%. Moreover, the “Growth inhibition rate (%) Velvetleaf” value in assay [4] stood at 0%. Moreover, the “Growth inhibition rate (%) Crabgrass” value in assay [5] worked out at 20%; in [17], 100%. Moreover, the “Growth inhibition rate (%) Redroot pigweed” value in assay [6] and in [16] was 0% each time. Also, the “Growth inhibition rate (%) Prickly sida” value in assay [7] was found to be 0%. The “Growth inhibition rate (%) Soybean” value in assay [8] is listed as 0%; in assay [18] it was 20%. Moreover, the “Growth inhibition rate (%) Rice” value in the assay on rice (Oryza sativa L.) [9] turned out to be 0%; in the assay with rice (Oryza sativa L.) [19], 50%. The “Growth inhibition rate (%) Corn” value with corn (Zea mays L.) [10] was 0%; with corn (Zea mays L.) [20] it was 45%. The “Growth inhibition rate (%) Wild oat” value in assay [14] amounted to 98%. In [15], the “Growth inhibition rate (%) Italian ryegrass” value is 100%.
